# Assay results from patent publication US20030099600A1, “Metalloproteinase inhibitors for the treatment of respiratory diseases” (priority 2000, published 2003).
# Columns and labels:
# [1] = route of administration that avoids first-pass metabolism; cited from earlier work
# TIMP-1 [2] = assay: Human study in COPD subjects: TIMP-1 levels (ELISA); type: in vivo; conditions: for TIMP-1 % of control: capsules 50, 100, 200 mg ascending, 3 days each, 4-day wash out
# Procedure: (§1) This was an open-label, ascending dose, cross-over study. Suitable subjects with chronic obstructive pulmonary disease (COPD) had their respiratory function assessed at baseline and provided sputum and blood for MMP and doxycycline levels. They then received 50 mg, 100 mg and 200 mg of doxycycline capsules for a period of 3 days in ascending order. At the end of each treatment period a further assessment of respiratory function was performed, and a sputum and blood sample was analysed for MMP, TIMP-1 and doxycycline levels. There was a 4-day wash out period between each treatment period of the study. The MMPs and TIMPs released were measured using commercial ELISAs as detailed above for the lung tissue study.
# MMP-1 = assay: Lung tissue study: MMP-1 released by human lung tissue in vitro (ELISA); type: cell-based; conditions: 24 hours; for MMP-1 % of IL-1: 100 U/ml IL-1 stimulated; for MMP-1 % of control: unstimulated fragments
# Procedure: (§2) This study was done to assess the effects of doxycycline on the release of matrix metalloproteinases by human lung tissue in vitro.
# (§3) On the following day, 2-3 fragments (total weight 50 mg) were placed in 0.8 ml of culture buffer and 0.1 ml of doxycycline (to give a final concentration of 10^−4-10^−8M) or a buffer control was added.
# (§4) After one hours incubation at 37° C., the fragments were treated with either 0.1 ml of either a buffer control (unstimulated fragments) or 1000 U/ml interleukin-1 (final concentration of 100 U/ml IL-1). The fragments were then incubated for 24 hours and the supernatant recovered; the tissue was weighed and stored at −70° C.
# (§5) The MMPs and TIMPs released into the supematant were measured using commercial ELISAs (Amersham); values were expressed as ng of MMP/TIMP per mg of lung tissue.
# MMP-1 levels are analysed by Elisa plates (Code No. RPN2610) from Amersham Pharmacia Biotech UK Limited, Amersham Place, Little Chalfont, BUCKS HP7 9NA.
# (§6) The Elisa is run as per manufacturer's instructions.
# This Elisa is specific for total MMP-1; recognising pro MMP-1, active MMP-1 and MMP-1/TIMP-1 complex.
# MMP-9 [3] = assay: Human study in COPD subjects: MMP-9 levels (ELISA); type: in vivo; conditions: for MMP-9 % of control: capsules 50, 100, 200 mg ascending, 3 days each, 4-day wash out
# Procedure: as §1
# MMP-9 [4] = assay: Lung tissue study: MMP-9 released by human lung tissue in vitro (ELISA); type: cell-based; conditions: 24 hours; for MMP-9 % of IL-1: 100 U/ml IL-1 stimulated; for MMP-9 % of control: unstimulated fragments
# Procedure: as §2, §3, §4, §5
# [5] = oral route; cited from earlier work
# MMP-2 = assay: Lung tissue study: MMP-2 released by human lung tissue in vitro (ELISA); type: cell-based; conditions: 24 hours; for MMP-2 % of IL-1: 100 U/ml IL-1 stimulated; for MMP-2 % of control: unstimulated fragments
# Procedure: as §2, §3, §4, §5
# MMP-2 levels are analysed by Elisa plates (Code No. RPN2617) from Amersham Pharmecia Biotech UK Limited, Amersham Place, Little Chalfont, BUCKS HP7 9NA.
# as §6
# This Elisa is specific for proMMP-2; recognising free proMMP-2 and MMP-2 complexed to TIMP-2, but not the active form of MMP-2. No cross-reactivity with MMP-1, 3, 7, 8, 9 and MT1-MMP.
# TIMP-1 [6] = assay: Lung tissue study: TIMP-1 released by human lung tissue in vitro (ELISA); type: cell-based; conditions: 24 hours; for TIMP-1 % of IL-1: 100 U/ml IL-1 stimulated; for TIMP-1 % of control: unstimulated fragments
# Procedure: as §2, §3, §4, §5
# [7] = Mean of study days 4, 8, 11, 15, 18, COPD subjects
smiles,measurement,setting,value
C[C@H]1c2cccc(O)c2C(=O)C2=C(O)[C@]3(O)C(=O)C(C(N)=O)=C(O)[C@@H](N(C)C)[C@@H]3[C@@H](O)[C@@H]21 [doxycycline],lung concentration relative to the level in plasma,[1],up to 10 times
same,TIMP-1 % of control,"TIMP-1 [2]; Day of Study 4, COPD subjects",116.24%
same,TIMP-1 % of control,"TIMP-1 [2]; Day of Study 15, COPD subjects",974.24%
same,"TIMP-1 % of control, Mean",TIMP-1 [2]; [7],978.67%
same,increase in TIMP-1,TIMP-1 [2]; human patient study,10 fold
same,"upregulation of TIMP-1 in COPD sputum, % of untreated levels",TIMP-1 [2]; repeated dosing at 100 mg once daily,about 1000%
same,MMP-1 % of IL-1,MMP-1; 10^-4 M,14.75%
same,MMP-1 % of control,MMP-1; 10^-4 M,24.05%
same,MMP-1 % of IL-1,MMP-1; 10^-6 M,61.47%
same,MMP-1 % of control,MMP-1; 10^-6 M,84.10%
same,MMP-1 % of IL-1,MMP-1; 10^-8 M,51.87%
same,MMP-1 % of control,MMP-1; 10^-8 M,76.50%
same,MMP-9 % of control,"MMP-9 [3]; Day of Study 4, COPD subjects",39.43%
same,MMP-9 % of control,"MMP-9 [3]; Day of Study 8, COPD subjects",12.85%
same,MMP-9 % of control,"MMP-9 [3]; Day of Study 11, COPD subjects",29.17%
same,MMP-9 % of control,"MMP-9 [3]; Day of Study 15, COPD subjects",22.41%
same,MMP-9 % of control,"MMP-9 [3]; Day of Study 18, COPD subjects",29.03%
same,"MMP-9 % of control, Mean",MMP-9 [3]; [7],26.58%
same,reduction in MMP-9 activity,MMP-9 [3]; human patient study,73%
same,MMP-9 % of IL-1,MMP-9 [4]; 10^-4 M,51.04%
same,MMP-9 % of control,MMP-9 [4]; 10^-4 M,39.36%
same,MMP-9 % of IL-1,MMP-9 [4]; 10^-6 M,99.29%
same,MMP-9 % of control,MMP-9 [4]; 10^-6 M,116.84%
same,MMP-9 % of IL-1,MMP-9 [4]; 10^-8 M,127.04%
same,MMP-9 % of control,MMP-9 [4]; 10^-8 M,113.57%
same,protein binding,[5],very highly protein-bound
same,MMP-2 % of IL-1,MMP-2; 10^-4 M,49.23%
same,MMP-2 % of control,MMP-2; 10^-4 M,34.34%
same,MMP-2 % of IL-1,MMP-2; 10^-6 M,86.86%
same,MMP-2 % of control,MMP-2; 10^-6 M,219.33%
same,MMP-2 % of IL-1,MMP-2; 10^-8 M,95.75%
same,MMP-2 % of control,MMP-2; 10^-8 M,101.47%
same,TIMP-1 % of IL-1,TIMP-1 [6]; 10^-4 M,75.47%
same,TIMP-1 % of control,TIMP-1 [6]; 10^-4 M,44.49%
same,TIMP-1 % of IL-1,TIMP-1 [6]; 10^-6 M,508.92%
same,TIMP-1 % of control,TIMP-1 [6]; 10^-6 M,182.40%
same,TIMP-1 % of IL-1,TIMP-1 [6]; 10^-8 M,461.92%
same,TIMP-1 % of control,TIMP-1 [6]; 10^-8 M,172.02%
